Where two headings read alike, the source gives them in different places.
Legend:
[1] = target: T1, human M2R (Homo sapiens, UniProt P08172); experiment: [3H]Scopolamine radioligand competition binding at M2R
T1 construct: host or cells: HEK293 (CRL-1573, ATCC), transient
T1 sequence (P08172 1-466): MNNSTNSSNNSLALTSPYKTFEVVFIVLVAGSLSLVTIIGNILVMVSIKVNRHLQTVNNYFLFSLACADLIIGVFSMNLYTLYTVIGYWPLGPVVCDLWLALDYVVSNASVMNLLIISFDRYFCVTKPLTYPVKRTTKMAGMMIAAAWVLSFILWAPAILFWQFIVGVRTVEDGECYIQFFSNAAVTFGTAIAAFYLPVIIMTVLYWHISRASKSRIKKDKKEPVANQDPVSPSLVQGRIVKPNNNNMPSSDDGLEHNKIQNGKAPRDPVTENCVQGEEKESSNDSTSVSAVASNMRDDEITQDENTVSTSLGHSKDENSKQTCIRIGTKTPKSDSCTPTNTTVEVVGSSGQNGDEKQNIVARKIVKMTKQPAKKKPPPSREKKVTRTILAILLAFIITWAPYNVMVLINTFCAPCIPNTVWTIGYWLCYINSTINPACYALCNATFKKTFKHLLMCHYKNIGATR
Protocol: (§1) Radioligand Competition Binding: Radioligand competition binding assays were conducted using membranes collected from transiently transfected HEK293 cells (P<20 from a procured stock, CRL-1573, ATCC, Manassas, Va., USA) as previously described (Chen, Y., et al. Drug Test Anal 11, 990-998). Briefly, cells ˜90% confluent in 10 cm plates were transfected with 5 μg human M1R, M2R, M3R, M4R or […] cDNA (cDNA resource center, Bloomsburg, Pa., USA) using a lipid-based method (LipoD293 reagent, SignaGen Laboratories, Rockville, Md., USA). Membranes were collected by centrifugation about 48 hours later and stored at −80° C. until used. […] After a 90-minute incubation at room temperature on a shaker, contents from the plates were rapidly filtered through GF/B fiberglass filter mats, pre-soaked with ice cold 50 mM Tris buffer (pH 7.4), using a Microbeta Filtermat-96 cell harvester (Perkin Elmer, Waltham, Mass., USA). Approximately 200 mL of ice cold, 50 mM Tris buffer was then vacuumed through filter mats to wash away unbound radioligand. Filter mats were dried on a hot plate and soaked in Betaplate (Perkin Elmer, Waltham, Mass., USA) scintillation fluid in plastic bags. Bags were sealed and placed in cassettes. Radioactivity was measured in a Microbeta2 Microplate Counter (Perkin Elmer, Waltham, Mass., USA), and counts per minute corresponding to each well on the plates were recorded. For full dose-response competition binding assays, increasing half-log unit concentrations of five unsubstituted PSCs were tested at M2Rs and M1Rs, with the same procedures described above.
(§2) Curve Fitting and Statistical Analyses: All data were analyzed by GraphPad 8.3.0 (San Diego, Calif., USA). Ki values were determined from data fit to both one- and two-site models. […] EC50 and IC50 values from functional assays were determined from data fit to the log(agonist) vs. response (three parameters) or log(inhibitor) vs. response (three parameters) model, respectively. Kb values were calculated from IC50 values using the Cheng-Prusoff equation with modification (see, e.g., Leff, P., and Dougall, I. G. (1993) Trends Pharmacol Sci 14, 110-112): Kb=IC50/((2+([A]/[A50])nH)1/nH−1)

[2] = target: T2, human M5R (Homo sapiens, UniProt P08912); experiment: [3H]Scopolamine radioligand competition binding at M5R
T2 construct: host or cells: HEK293 (CRL-1573, ATCC), transient
T2 sequence (P08912 1-532): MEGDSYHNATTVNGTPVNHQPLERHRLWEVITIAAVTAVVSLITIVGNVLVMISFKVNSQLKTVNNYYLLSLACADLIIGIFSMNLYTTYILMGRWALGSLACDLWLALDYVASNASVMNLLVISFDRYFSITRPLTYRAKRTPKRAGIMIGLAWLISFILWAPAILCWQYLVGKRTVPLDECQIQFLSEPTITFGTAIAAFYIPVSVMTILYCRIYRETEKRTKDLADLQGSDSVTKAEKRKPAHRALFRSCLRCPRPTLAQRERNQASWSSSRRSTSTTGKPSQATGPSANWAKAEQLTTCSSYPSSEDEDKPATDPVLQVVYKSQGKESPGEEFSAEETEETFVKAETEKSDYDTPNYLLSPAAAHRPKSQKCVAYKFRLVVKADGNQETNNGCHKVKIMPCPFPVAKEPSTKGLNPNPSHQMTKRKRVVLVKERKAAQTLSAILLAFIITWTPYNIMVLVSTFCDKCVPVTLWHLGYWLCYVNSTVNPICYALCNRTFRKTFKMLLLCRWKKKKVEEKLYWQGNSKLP
Protocol: as §1, §2

[3] = target: T3, human M4R (Homo sapiens, UniProt P08173); experiment: [3H]Scopolamine radioligand competition binding at M4R
T3 construct: host or cells: HEK293 (CRL-1573, ATCC), transient
T3 sequence (P08173 1-479): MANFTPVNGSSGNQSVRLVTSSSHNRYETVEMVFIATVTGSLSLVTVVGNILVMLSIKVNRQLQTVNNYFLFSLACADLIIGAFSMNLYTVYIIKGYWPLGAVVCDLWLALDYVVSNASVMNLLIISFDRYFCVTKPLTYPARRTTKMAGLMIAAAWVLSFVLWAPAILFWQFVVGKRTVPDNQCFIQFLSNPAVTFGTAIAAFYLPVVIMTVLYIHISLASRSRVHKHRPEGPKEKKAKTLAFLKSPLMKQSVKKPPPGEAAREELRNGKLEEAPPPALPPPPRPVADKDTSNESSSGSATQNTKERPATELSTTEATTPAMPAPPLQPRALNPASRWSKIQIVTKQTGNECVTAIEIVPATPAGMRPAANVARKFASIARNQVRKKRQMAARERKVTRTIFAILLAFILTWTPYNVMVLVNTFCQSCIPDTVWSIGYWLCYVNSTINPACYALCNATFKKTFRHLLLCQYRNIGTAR
Protocol: as §1, §2

[4] = target: T4, human M3R (Homo sapiens, UniProt P20309); experiment: biochemical; type: binding; conditions: estimate from 1 and 10 μM concentrations (N = 2); N.C. = <5% displacement of radioligand at 10 μM; read-out: estimated pKi at M3R (converted)
T4 construct: host or cells: HEK293 (CRL-1573, ATCC), transient
T4 sequence (P20309 whole entry): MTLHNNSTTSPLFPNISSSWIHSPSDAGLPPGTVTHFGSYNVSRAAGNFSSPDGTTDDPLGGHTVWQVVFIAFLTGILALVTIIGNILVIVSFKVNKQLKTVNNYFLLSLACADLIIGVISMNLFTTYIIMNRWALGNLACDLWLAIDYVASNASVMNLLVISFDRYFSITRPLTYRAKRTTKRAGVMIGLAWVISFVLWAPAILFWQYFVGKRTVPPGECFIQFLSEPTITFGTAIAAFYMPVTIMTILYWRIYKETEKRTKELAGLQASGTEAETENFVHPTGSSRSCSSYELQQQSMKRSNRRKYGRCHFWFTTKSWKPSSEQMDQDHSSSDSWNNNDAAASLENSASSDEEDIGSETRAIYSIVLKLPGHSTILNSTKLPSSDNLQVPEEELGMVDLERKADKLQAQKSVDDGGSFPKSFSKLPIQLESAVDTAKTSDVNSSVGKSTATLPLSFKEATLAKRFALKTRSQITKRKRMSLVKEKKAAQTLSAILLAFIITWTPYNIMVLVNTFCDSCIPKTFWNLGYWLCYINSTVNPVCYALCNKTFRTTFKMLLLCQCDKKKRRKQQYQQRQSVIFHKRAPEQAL
Protocol: as §1, §2

[5] = target: T5, human M1R (Homo sapiens, UniProt P11229); experiment: biochemical; type: binding
T5 construct: host or cells: HEK293 (CRL-1573, ATCC), transient
T5 sequence (P11229 1-460): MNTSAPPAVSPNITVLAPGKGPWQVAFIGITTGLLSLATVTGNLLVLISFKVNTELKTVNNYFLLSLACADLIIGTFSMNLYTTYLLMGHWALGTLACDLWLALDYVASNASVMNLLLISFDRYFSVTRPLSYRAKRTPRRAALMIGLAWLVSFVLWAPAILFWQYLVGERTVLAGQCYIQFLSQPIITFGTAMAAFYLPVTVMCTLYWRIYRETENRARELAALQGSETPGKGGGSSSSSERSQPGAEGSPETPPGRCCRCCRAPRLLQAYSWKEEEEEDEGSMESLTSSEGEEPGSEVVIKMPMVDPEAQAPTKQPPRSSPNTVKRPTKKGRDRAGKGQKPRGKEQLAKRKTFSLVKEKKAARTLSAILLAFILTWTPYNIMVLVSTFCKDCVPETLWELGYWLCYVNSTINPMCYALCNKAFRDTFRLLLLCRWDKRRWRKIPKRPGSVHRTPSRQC
Protocol: as §1, §2

[6] = tested on: mitochondrial activity and cellular membranes; conditions: reported by Wojcieszak et al.; cited from earlier work
[7] = target: T6, human M1Rs (Homo sapiens, UniProt P11229); experiment: M1R phosphoinositide hydrolysis (IP-One HTRF); type: cell-based
T6 construct: host or cells: HEK293 (CRL-1573, ATCC), transient
T6 sequence (P11229 1-460): T5 sequence (P11229 1-460)

[8] = target: T1, human M2R; experiment: M2R cAMP signaling (forskolin-stimulated cAMP, oxotremorine agonist); type: cell-based
Protocol: The M2R coupled to Gαi/o proteins, and its agonism functioned to decrease formation of the intracellular second messenger cyclic-adenosine-monophosphate (cAMP). […] In the presence of oxotremorine, an antagonist of the M2R would be expected to reverse the effects of the agonist, thereby increasing cAMP formation.
M2R cAMP Signaling: cAMP measurements were performed with the cAMP Hunter eXpress® CHRM2 CHO-K1 GPCR assay (Eurofins DiscoveRx, Fremont, Calif., USA) according to the manufacturer's protocol. Briefly, in the provided 96-well tissue culture-treated plate, 100 μL of human M2R expressing CHO-K1 cells were seeded in cell plating reagent and incubated (37° C., 5% CO2, 95% humidity) overnight. Cell plating reagent was replaced with 30 μL of cell assay buffer the next day. For agonist stimulation, cells were treated with increasing half-log unit concentrations of oxotremorine in the presence of 10 μM forskolin, followed by incubation for 30 minutes. A cAMP antibody, cAMP working detection solution and enzyme acceptor solution were then added according to the protocol, and the final chemiluminescent signals were detected by a Mithras LB 940 microplate reader (Berthold Technologies, Bad Wildbad, Germany). Antagonist tests were run by pretreating cells with increasing half-log unit concentrations of α-PHP, followed by incubation for one hour. Cells were then treated with EC80 concentration of oxotremorine (130 nM) and 10 μM forskolin. The same incubation and detection procedure used for agonist assays was used for the remaining steps.
as §2

[9] = target: T7, M2Rs (Homo sapiens, UniProt P08172); experiment: M2R β-arrestin recruitment; type: cell-based
T7 sequence (P08172 1-466): T1 sequence (P08172 1-466)
Text: Data are shown as normalized means (±SEM) of two, independent determinations, with oxotremorine tested at each concentration in duplicate and α-PHP tested in quadruplicate. [*Basal signaling is defined as the normalized RLU emitted by untreated cells.]

[10] = 42 cases of intoxication, Beck et al. 2016; cited from earlier work
[11] = estimated pKi at M2R, estimate from 1 and 10 μM concentrations (N = 2), N.C. = <5% displacement of radioligand at 10 μM
[12] = estimate from 1 and 10 μM concentrations (N = 2), N.C. = <5% displacement of radioligand at 10 μM, read-out: estimated pKi at M1R (converted)
[13] = pKi at M2R, full dose-response [3H]Scopolamine competition binding, α-PPP and α-PBP interpolated
[14] = full dose-response [3H]Scopolamine competition binding, α-PPP and α-PBP interpolated, read-out: pKi at M1R (converted)

In the case of `CCC(C(=O)c1ccc2c(c1)OCO2)N1CCCC1` (stereo not drawn) [MDPBP, 3,4-Methylenedioxy-α-pyrrolidinobutiophenone], the Ki [1, 11] is reported as 12.6 µM, the Ki [2] is reported as 18.2 µM and the Ki [3] is reported as 10.2 µM. It also gave a Ki [4] of 14.5 µM.
In the case of `CCCCC(C(=O)c1ccc2c(c1)OCO2)N1CCCC1` (stereo not drawn) [MDPHP, 3,4-Methylenedioxy-α-pyrrolidinohexiophenone], the Ki [1, 11] is reported as 5.01 µM, the Ki [2] is reported as 7.94 µM and the Ki [3] is reported as 12.9 µM. It also gave a Ki ([5]; estimate from 1 and 10 μM screens, read-out: estimated Ki at M1Rs) of 3.63 µM and a Ki [4] of 25.7 µM.
`CCCCCC(C(=O)c1ccc2c(c1)OCO2)N1CCCC1` (stereo not drawn) [MDPHPP, 3,4-Methylenedioxy-α-pyrrolidinoheptaphenone] gave a Ki [1, 11] of 12 µM, a Ki [2] of 5.62 µM and a Ki [3] of 33.1 µM. The Ki [5, 12] was 6.03 µM and the Ki [4] was 36.3 µM.
For `CCCC(C(=O)c1ccc2c(c1)OCO2)N1CCCC1` (centres unmarked) [MDPV, 3,4-Methylenedioxypyrovalerone], the “cytotoxicity (mitochondrial activity, cellular membrane damage)” value (shortened to “cytotoxicity”) [6] is given as “this effect was not observed”, the Ki [1, 11] is given as 13.8 µM and the Ki [2] is given as 6.31 µM. It also gave a Ki [3] of 8.91 µM, a Ki [5, 12] of 8.71 µM and a Ki [4] of 70.8 µM.
For `CNC(C)C(=O)c1ccccc1` (centres unmarked) [methcathinone], the “cytotoxicity” value [6] is given as “these toxic effects were not observed”.
In the case of `O=C1CCCN1CC#CCN1CCCC1` [oxotremorine, Oxotremorine], the “pKi High at M2R” value ([1]; two-site model) is reported as 7.92±0.40, the “pKi Low at M2R” value ([1]; two-site model) is reported as 6.15±0.10 and the “EC80, IP1 production” value [7] is reported as 0.5 µM. For the same molecule, the “pEC, IP1 production” value [7] was 7.21±0.20, the “pEC50, decrease of forskolin-stimulated cAMP production” value ([8]; 10 μM forskolin) was 7.54±0.12 and the EC50 ([8]; 10 μM forskolin, read-out: EC50, decrease of forskolin-stimulated cAMP production) was 0.029 µM. The “EC80, inhibition of cAMP formation” value ([8]; forskolin-stimulated) was 0.13 µM, the “pKi High at M1R” value [5] was 7.62±0.36 and the “pKi Low at M1R” value [5] was 5.41±0.04. For the same molecule, the “pEC50, β-arrestin recruitment” value [9] was 5.71±0.11.
Work on `CCC(C(=O)c1ccccc1)N1CCCC1` (stereo not drawn) [α-PBP, α-Pyrrolidinobutiophenone] yielded a Ki [1, 13] of 39.8 µM and a Ki [5, 14] of 75.9 µM.
Work on `CCCCCC(C(=O)c1ccccc1)N1CCCC1` (stereo not drawn) [α-PHPP, α-Pyrrolidinoheptaphenone] yielded a Ki [1, 13] of 0.661 µM, a Ki [2] of 1.15 µM and a Ki [3] of 1.38 µM. For the same molecule, the Ki [5, 14] was 1.95 µM and the Ki [4] was 1.12 µM.
`CC(C(=O)c1ccccc1)N1CCCC1` (stereo not drawn) [α-PPP, α-Pyrrolidinopropiophenone] showed a Ki ([1]; Ki at M2Rs, full dose-response, interpolated) of 73 µM, a Ki [1, 13] of 75.9 µM and a Ki [5, 14] of 195 µM.
For `CCCCCCC(C(=O)c1ccccc1)N1CCCC1` (stereo not drawn) [α-PV9, α-Pyrrolidinooctanophenone], the “cytotoxicity” value [6] is listed as “potently decreased mitochondrial activity, and severely damaged cellular membranes”.
In the case of `CCCC(C(=O)c1ccccc1)N1CCCC1` (stereo not drawn) [α-PVP, α-Pyrrolidinopentiophenone], the “fold increase in M2R affinity compared to α-PBP” value [1] is reported as 49 fold, the “fold increase in M2R affinity compared to α-PPP” value [1] is reported as 89 fold and the Ki ([1]; Ki at M2Rs, full dose-response [3H]Scopolamine competition binding) is reported as 0.824 µM. It also gave a Ki [2] of 4.17 µM, a Ki [3] of 8.13 µM and a Ki [5, 14] of 5.13 µM. For the same molecule, the Ki [4] was 6.03 µM and the “patients presenting with tachycardia” value [10] was 80%.
